Where a name gives a salt, the structure may show the parent alone. Read-outs that look alike come from different tables or passages of the source.
Tested on: relapsed AML cells
Experiment: Drug sensitivity assay, 1,536-well, 3-day culture with individual approved drugs at 10 μM, viability by alamarBlue
Type: cell-based, human
Outline: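 FACS-sorted viable myeloid blasts from thawed AML samples, 4,000-4,500 cells per 5 μL well, cultured in IMDM with 15% BIT, SCF, FLT3L, IL-3, G-CSF. Drugs added per well; after three days percentage of live cells measured to gauge killing.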

[1] = number of relapsed AML cases out of 18 tested with >70% cell death, 10 μM, 3-day culture

| Compound | #Cases >70% cell death [1] | #Cases >70% cell death |
| --- | --- | --- |
| COc1ccc(S(=O)(=O)N(C(C)=O)c2ccccc2/C=C/c2cc[n+]([O-])cc2)cc1 [HMN-214] | 5 | – |
| VINFLUNINE TARTRATE | 14 | – |
| Nc1c2ccccc2nc2ccccc12 [AMINACRINE] | 18 | – |
| CCC1=C[C@@H]2CN(C1)Cc1c([nH]c3ccccc13)[C@@](C(=O)OC)(c1cc3c(cc1OC)N(C)[C@H]1[C@@](O)(C(=O)OC)[C@H](OC(C)=O)[C@]4(CC)C=CCN5CC[C@]31[C@@H]54)C2 [VINORELBINE] | 16 | – |
| C[C@]12C=CC(=O)C=C1CC[C@@H]1[C@@H]2[C@@H](O)C[C@@]2(C)[C@H]1CC[C@]2(O)C(=O)CO [PREDNISOLONE] | 1 | – |
| COCCOC(=O)C1=C(C)NC(C)=C(C(=O)OC/C=C/c2ccccc2)C1c1cccc([N+](=O)[O-])c1 (stereo not shown) [CILNIDIPINE] | 1 | – |
| CC(C)OC(=O)C(C)(C)Oc1ccc(C(=O)c2ccc(Cl)cc2)cc1 [FENOFIBRATE] | 3 | – |
| COc1cc2ncnc(Nc3ccc(F)c(Cl)c3)c2cc1OCCCN1CCOCC1 [GEFITINIB] | 2 | – |
| CCCCc1oc2ccc(NS(C)(=O)=O)cc2c1C(=O)c1ccc(OCCCN(CCCC)CCCC)cc1 [DRONEDARONE] | 12 | – |
| COc1ccc2cc3[n+](cc2c1OC)CCc1cc2c(cc1-3)OCO2 [BERBERINE CHLORIDE] | 1 | – |
| Cc1c(Nc2ncccc2C(=O)O)cccc1C(F)(F)F [FLUXININ] | 3 | – |
| Cc1ccc(C(=O)N(CCCN)[C@@H](c2oc3cc(Cl)ccc3c(=O)c2Cc2ccccc2)C(C)C)cc1 [SB743921] | 18 | – |
| CC(C)c1cc(C(C)C)c(-c2csc(N(CCN(C)C)Cc3cccnc3)n2)c(C(C)C)c1 [FOROPAFANT] | 6 | – |
| COc1ccc(C2CNC(=O)C2)cc1OC1CCCC1 (stereo not shown) [ROLIPRAM] | 1 | – |
| Cc1cc(C2CCCCC2)n(O)c(=O)c1 [CICLOPIROX] | 14 | – |
| CCN(CC)CCOc1ccc(C(=C(Cl)c2ccccc2)c2ccccc2)cc1 [CLOMIFENE] | 10 | – |
| CC1(C)CC(=O)c2c(C(F)(F)F)nn(-c3ccc(C(N)=O)c(N[C@H]4CC[C@H](O)CC4)c3)c2C1 [PF-04928473] | 18 | – |
| CC(C)(C)CC(C)(C)c1cc(Cc2cc(C(C)(C)CC(C)(C)C)cc(-n3nc4ccccc4n3)c2O)c(O)c(-n2nc3ccccc3n2)c1 [BISOCTRIZOLE] | 1 | – |
| COc1cccc2c1C(=O)c1c(O)c3c(c(O)c1C2=O)C[C@@](O)(C(=O)CO)C[C@@H]3O[C@H]1C[C@H](N)[C@H](O)[C@H](C)O1 [DOXORUBICIN] | 18 | – |
| [O-][n+]1ccccc1[S-].[O-][n+]1ccccc1[S-].[Zn+2] [PYRITHIONE ZINC] | – | 7 |
| OC(Cn1cncn1)(Cn1cncn1)c1ccc(F)cc1F [FLUCONAZOLE] | 1 | – |
| Cc1[nH]c2ccccc2c1CCNCc1ccc(/C=C/C(=O)NO)cc1 [PANOBINOSTAT] | 1 | – |
| O=C(/C=C/c1cccnc1)NCCCCC1CCN(C(=O)c2ccccc2)CC1 [APO-866] | 17 | – |
| CCOC(=O)C1=C(C)NC(C)=C(C(=O)OCC)C1c1ccccc1/C=C/C(=O)OC(C)(C)C [LACIDIPINE] | 2 | – |
| O=C(O)C1[O][Sb]2[O]C(=O)C([O]2)C(C(=O)O)[O][Sb]2[O]C(=O)C1[O]2 (stereo not shown) [ANTIMONY POTASSIUM TARTRATE TRIHYDRATE] | – | 3 |

| Compound | #Cases >70% cell death [1] | #Cases >70% cell death |
| --- | --- | --- |
| Cc1cc([C@@H](C)Nc2ccccc2C(=O)O)c2nc(N3CCOCC3)cc(=O)n2c1 [AZD-6482] | 1 | – |
| CCCCCCCCCCCCCCCC[N+](C)(C)CCN(Cc1ccc(OC)cc1)c1ncccn1 [THONZONIUM BROMIDE] | 18 | – |
| CC(=O)N1CCN(c2ccc(OCC3COC(Cn4ccnc4)(c4ccc(Cl)cc4Cl)O3)cc2)CC1 (stereo not shown) [KETOCONAZOLE] | 5 | – |
| C[C@H]1O[C@@H](O[C@H]2[C@@H](O)C[C@H](O[C@H]3[C@@H](O)C[C@H](O[C@H]4CC[C@@]5(C)[C@H](CC[C@@H]6[C@@H]5CC[C@]5(C)[C@@H](C7=CC(=O)OC7)CC[C@]65O)C4)O[C@@H]3C)O[C@@H]2C)C[C@H](O)[C@@H]1O [DIGITOXIN] | 18 | – |
| Cc1cc(N)c2ccccc2[n+]1CCCCCCCCCC[n+]1c(C)cc(N)c2ccccc21 [DEQUALINIUM CHLORIDE] | 17 | – |
| O=C1NCC2(CCN(CCc3ccccc3)CC2)O1 [FENSPIRIDE] | 3 | – |
| O=C(O)c1ccccc1C(=O)Nc1ccc(S(=O)(=O)Nc2nccs2)cc1 [PHTHALYLSULFATHIAZOLE] | 1 | – |
| NALTRIBEN METHAN[…] | 1 | – |
| EPRINOMECTIN | 5 | – |
| CCN(CC)CCOc1ccc2c(c1)C(=O)c1cc(OCCN(CC)CC)ccc1-2 [TILORONE] | 10 | – |
| CCCCNc1ccc(C(=O)OCCN(C)C)cc1 [TETRACAINE] | 12 | – |
| CN1CCN(c2ncc(-c3cc(Cl)cc(Cl)c3Cl)c(N)n2)CC1 [SIPATRIGINE] | 1 | – |
| C#C[C@]1(O)CC[C@H]2[C@@H]3CCC4=Cc5oncc5C[C@]4(C)[C@H]3CC[C@@]21C [DANAZOL] | 1 | – |
| CC(=O)[C@]1(O)Cc2c(O)c3c(c(O)c2[C@@H](O[C@H]2C[C@H](N)[C@H](O)[C@H](C)O2)C1)C(=O)c1ccccc1C3=O [IDARUBICIN] | 18 | – |
| O=C(Nc1ccc(-c2ccnc(Nc3ccc(N4CCOCC4)cc3)n2)cc1)C1CCCN1 (stereo not shown) [XL019] | 3 | – |
| NNC(=O)c1ccncc1 [ISONIAZID] | 1 | – |
| CC(C)NCC(O)COc1ccc(CC(N)=O)cc1 (stereo not shown) [ATENOLOL] | 1 | – |
| Cc1cnc(C(=O)O)c[n+]1[O-] [ACIPIMOX] | 1 | – |
| O=C(/C=C/c1ccc(CN(CCO)CCc2c[nH]c3ccccc23)cc1)NO [LAQ-824] | 18 | – |
| C[C@@H](Oc1cc(-c2cnn(C3CCNCC3)c2)cnc1N)c1c(Cl)ccc(F)c1Cl [CRIZOTINIB] | 10 | – |
| NONOXYNOL-9 | 2 | – |
| N#Cc1ccc2[nH]cc(CCCCN3CCN(c4ccc5oc(C(N)=O)cc5c4)CC3)c2c1 [VILAZODONE] | 2 | – |
| Cn1cc(-c2[nH]c3cc(NC(=O)[C@H](N)C4CCCCC4)cc4c3c2C=NNC4=O)cn1 [PF-00477736] | 13 | – |
| CCCCCCCCNC(C)C(O)c1ccc(SC(C)C)cc1 (stereo not shown) [SULOCTIDIL] | 12 | – |
| COc1cc([C@@H]2c3cc4c(cc3[C@@H](O[C@@H]3O[C@@H]5CO[C@@H](c6cccs6)O[C@H]5[C@H](O)[C@H]3O)[C@H]3COC(=O)[C@H]23)OCO4)cc(OC)c1O [TENIPOSIDE] | 10 | – |

| Compound | #Cases >70% cell death [1] | #Cases >70% cell death |
| --- | --- | --- |
| CN(C)C(=S)SSC(=S)N(C)C [THIRAM] | 4 | – |
| CNC(=O)c1ccccc1Sc1ccc2c(/C=C/c3ccccn3)n[nH]c2c1 [AXITINIB] | 9 | – |
| CC[C@]1(O)C[C@H]2CN(CCc3c([nH]c4ccccc34)[C@@](C(=O)OC)(c3cc4c(cc3OC)N(C=O)[C@H]3[C@@](O)(C(=O)OC)[C@H](OC(C)=O)[C@]5(CC)C=CCN6CC[C@]43[C@@H]65)C2)C1 [VINCRISTINE] | 14 | – |
| CC(C)(C)[C@]1(O)CCN2C[C@H]3c4ccccc4CCc4cccc(c43)[C@@H]2C1.Cl [(−)-BUTACLAMOL HCL] | 3 | – |
| CC(C)C[C@H](NC(=O)[C@H](CCc1ccccc1)NC(=O)CN1CCOCC1)C(=O)N[C@@H](Cc1ccccc1)C(=O)N[C@@H](CC(C)C)C(=O)[C@@]1(C)CO1 [CARFILZOMIB] | 18 | – |
| CCCCC(CC)CNC(=N)NC(=N)NCCCCCCNC(=N)NC(=N)NCC(CC)CCCC (stereo not shown) [ALEXIDINE] | 18 | – |
| CCN(CC)CCNc1ccc(CO)c2sc3ccccc3c(=O)c12 [HYCANTHONE] | 9 | – |
| Cc1ccc(S(=O)(=O)NC(=O)NN2CC3CCCC3C2)cc1 (stereo not shown) [GLICLAZIDE] | 1 | – |
| Cc1nccn1CC1CCc2c(c3ccccc3n2C)C1=O (stereo not shown) [ONDANSETRON (Zofran), ONDANSETRON] | 1 | – |
| CN(c1ncccc1CNc1nc(Nc2ccc3c(c2)CC(=O)N3)ncc1C(F)(F)F)S(C)(=O)=O [PF-562271] | 18 | – |
| COc1cc2c(Nc3ccc(Br)cc3F)ncnc2cc1OCC1CCN(C)CC1 [VANDETANIB] | 1 | – |
| Nc1nc(F)nc2c1ncn2[C@@H]1O[C@H](CO)[C@@H](O)[C@@H]1O [FLUDARABINE] | 16 | – |
| CN1C[C@H](C(=O)N[C@]2(C)O[C@@]3(O)[C@@H]4CCCN4C(=O)[C@H](Cc4ccccc4)N3C2=O)C[C@@H]2c3cccc4[nH]cc(c34)C[C@H]21 [DIHYDROERGOTAMINE MESYLATE] | 1 | – |
| O=C1CC2(CCCC2)CC(=O)N1CCNCC1COc2ccccc2O1 (stereo not shown) [BINOSPIRONE MESYLATE] | 1 | – |
| C[CH2][Hg][S]c1ccccc1C(=O)[O-].[Na+] [THIMEROSAL] | – | 18 |
| COc1ccc(C[C@H](N)C(=O)N[C@H]2[C@@H](O)[C@H](n3cnc4c(N(C)C)ncnc43)O[C@@H]2CO)cc1 [PUROMYCIN] | 18 | – |
| COc1cc2nccc(Oc3ccc(NC(=O)C4(C(=O)Nc5ccc(F)cc5)CC4)cc3)c2cc1OC [CABOZANTINIB] | 2 | – |
| CCN(CC)CCN(Cc1ccc(-c2ccc(C(F)(F)F)cc2)cc1)C(=O)Cn1c(SCc2ccc(F)cc2)nc(=O)c2c1CCC2 [DARAPLADIB] | 18 | – |
| Cc1cc(C#N)cc(C)c1Oc1nc(Nc2ccc(C#N)cc2)nc(N)c1Br [ETRAVIRINE] | 1 | – |
| CC(C)(C)NCC(O)c1ccc(O)c(CO)c1 (stereo not shown) [ALBUTEROL] | 1 | – |
| C[C@@]1(C(=O)Nc2ccc(F)nc2)CCCN1c1nc(Nc2cc(C3CC3)n[nH]2)c2cccn2n1 [BMS-754807] | 1 | – |
| C[C@H]1COc2c(C3(N)CC3)c(F)cc3c(=O)c(C(=O)O)cn1c23 [PAZUFLOXACIN] | 1 | – |
| C[C@@H]1C[C@@H]([C@H](O)CC2CC(=O)NC(=O)C2)C(=O)[C@@H](C)C1 [CYCLOHEXIMIDE] | 18 | – |
